Test results published in patent US20230356105A1, “TETRAAZADODECANE BASED CHELATING AGENTS FOR SEPARATION OF RARE EARTH ELEMENTS AND METHOD THEREFOR” (Ustav Organicke Chemie a Biochemie AV CR V.V.I., priority 2020, published 2023).
Where “and” joins values, the source holds several entries; their conditions need not be identical. Equal entries are not always repeated.

Key:
[1] = Separation of Nd/Pr mixture by repeated precipitation using L5 and α-HIBA (Example 19); type: physicochemical; settings: for Precipitate concentration [mM] Nd / precipitate concentration [mM] Pr: dissolved to 200 μL
Method: Stock solutions were pipetted into 4 mL glass vials to prepare reaction mixtures with concentrations as follows: • 1. 11 mM (1.1 eq) chelator L5 • 2. 5 mM (0.5 eq) PrCl3 • 3. 5 mM (0.5 eq) NdCl3 • 4. […] (4 eq) α-HIBA pH=6.5 • 5. 500 mM (50 eq) MOPS pH=7
Three aqueous reaction mixtures, numbered 1-3, were prepared with a total volume of 2 mL each and were treated identically throughout the process. A PTFE-coated magnetic stir bar was added to each and the reaction mixtures were stirred on a magnetic stirrer overnight at room temperature. After 18 hours, a 200 μL aliquot of the resulting suspension was taken from each vial and labelled as Al, A2, or A3, according to the reaction mixture number it was taken from. The aliquots were then centrifuged in a plastic Eppendorf centrifuge tube. The supernatant was carefully pipetted from each and transferred to a new set of tubes. To the precipitate was added 200 μL 1 M HCl and the mixture was stirred until full dissolution (about 1 hour at room temperature). The Nd and Pr content of these precipitate and supernatant samples was determined by ICP-OES. The remaining 1800 μL of reaction mixture were centrifuged in plastic Eppendorf centrifuge vials, and the supernatant was set aside. A sample of the supernatant was analysed on HPLC-MS and peak areas were compared to those of a standard 10 mM chelate solution; this allowed for calculation of the approximate concentration of chelate remaining in solution, and therefore of the quantity of chelate which had precipitated. The total volume for subsequent reactions was scaled according to this information, such that the concentration of chelate in solution prior to precipitation was 10 mM, even as the net quantity of chelate present was reduced. The precipitate, then, was dissolved by addition of 25 molar equivalents of 1 M HCl and transferred to a clean 4 mL glass vial with a PTFE-coated magnetic stir bar. 4 molar equivalents of a-HIBA were added to this vial, followed by 50 molar equivalents 3 M MOPS pH=7, the necessary calculated volume of water, and 25 molar equivalents 2 M NaOH to finish neutralising the reaction mixture. (The final reaction volume here was not so important as the final reaction concentrations.) The reaction mixtures were again stirred on a magnetic stirrer at room temperature overnight. After 18 hours, the resulting suspensions were treated in the same manner as before, with 200 μL aliquots (labelled as B1, B2, B3) taken for ICP-OES determination of the Nd and Pr content of the precipitate and supernatant. The remaining 1600 μL of reaction mixture were centrifuged, and the supernatant was analysed by HPLC-MS; the precipitate was treated as before to again yield a reaction solution with an initial concentration of 10 mM of chelate. The reaction mixtures were stirred overnight for the third repetition of processing, and 200 μL aliquots (C1, C2, C3) were again treated for ICP-OES determination of Nd and Pr content in the precipitate and supernatant after 18 hours. The resulting absolute concentrations of both metals in the supernatants and precipitates, as well as calculated values of the separation factor Nd/Pr according to the formula from Example 11), are summarized in Table 13. […] The average separation factor was 1.69.

[2] = Separation of Pr from L5 by C18 column (Example 28); type: physicochemical
Method: Stock solutions were pipetted into a 20 mL glass vial to prepare a reaction mixture as follows: • 1. 1.00 mL 100 mM aqueous solution of PrCl3 • 2. 0.60 mL 218 mM aqueous solution of L5
NaOH (2 M aqueous stock solution) was added by micropipette to titrate the reaction pH to 6. This reaction was stirred by the use of a PTFE-coated stir bar on a magnetic stirrer at room temperature for 30 minutes. The resulting suspension was transferred into two 2 mL plastic Eppendorf centrifuge tubes and centrifuged. The supernatant was set aside and analysed by HPLC, and the precipitate was dissolved by addition of 0.15 mL 1 M HCl to each Eppendorf tube. These dissolved solutions were combined and titrated to pH 2 by addition of 2 M NaOH.
The L5 and Pr present in the acidic solution were separated by reverse-phase chromatography, using 1.01 g fully-endcapped C18 silica gel in a plastic SPE cartridge (2 cm diameter). After conditioning the reversed phase with MeCN and MeCN/H20 solutions, 1 mL of H2O was run through the column before loading the L5-Pr solution onto the column. MeCN/H20 solutions were used to elute the components from the column: 2 mL 0% MeCN, 4 mL 10% MeCN, 4 mL 25% MeCN, and 4 mL 50% MeCN. The eluted solutions were collected as seven 2 mL fractions. All fractions were analysed by HPLC-MS to determine L5 content. The first two fractions were also analysed by ICP-OES to determine Pr content.
The distribution of L5 and Pr in the fractions is shown in Table 21, where the quantity of each component present in each fraction is provided as a fraction of the total quantity of the component found in the sum of the fractions, as well as the measured content of Pr (in mM) and L5 (as the integrations of the chromatographic peak areas at 280 nm) found in each fraction.

With O=C(O)CN1CCN(CC(=O)O)CCN(Cc2cccc3ccccc23)CCN(CC(=O)O)CC1 [L5, 2,2′,2″-(10-(naphthalene-1-ylmethyl)-1,4,7,10-tetraazacyklododekane-1,4,7-triyl)triacetic acid] the “Supernatant concentration [mM] Nd” value ([1]; A, 1st precipitation) was 1.16 mM and 1.49 mM, the “supernatant concentration [mM] Pr” value ([1]; A, 1st precipitation, 20 mM (4 eq) α-HIBA) was 0.73 mM and 1.00 mM and 0.72 mM and the “supernatant concentration [mM] Pr” value ([1]; A, 1st precipitation, 20 mM (4 eq) α-HIBA, mean) was 0.82 mM. The “Precipitate concentration [mM] Nd” value ([1]; A, 1st precipitation) was 3.34 mM and 3.17 mM and 3.59 mM, the “precipitate concentration [mM] Pr” value ([1]; A, 1st precipitation) was 3.57 mM and 3.50 mM and 3.83 mM and the “Precipitate concentration [mM] Nd” value ([1]; A, 1st precipitation, mean) was 3.37 mM. The “precipitate concentration [mM] Pr” value ([1]; A, 1st precipitation, mean) was 3.63 mM, the “Supernatant concentration [mM] Nd” value ([1]; A, 1st precipitation, mean) was 1.27 mM and the “Supernatant concentration [mM] Nd” value ([1]; B, 2nd precipitation) was 0.94 mM and 0.79 mM and 0.88 mM. For the same compound, the “supernatant concentration [mM] Pr” value ([1]; B, 2nd precipitation) was 0.63 mM and 0.56 mM and 0.58 mM, the “Precipitate concentration [mM] Nd” value ([1]; B, 2nd precipitation) was 3.81 mM and 3.53 mM and 3.91 mM and the “precipitate concentration [mM] Pr” value ([1]; B, 2nd precipitation) was 4.45 mM and 4.22 mM and 4.52 mM. For the same compound, the “Precipitate concentration [mM] Nd” value ([1]; B, 2nd precipitation, mean) was 3.75 mM, the “precipitate concentration [mM] Pr” value ([1]; B, 2nd precipitation, mean) was 4.40 mM and the “Supernatant concentration [mM] Nd” value ([1]; B, 2nd precipitation, mean) was 0.87 mM. The “supernatant concentration [mM] Pr” value ([1]; B, 2nd precipitation, mean) was 0.59 mM, the “Supernatant concentration [mM] Nd” value ([1]; C, 3rd precipitation) was 0.87 mM and 0.93 mM and 0.75 mM and the “supernatant concentration [mM] Pr” value ([1]; C, 3rd precipitation) was 0.66 mM and 0.74 mM and 0.56 mM. The “Precipitate concentration [mM] Nd” value ([1]; C, 3rd precipitation) was 3.70 mM and 3.29 mM and 4.06 mM, the “precipitate concentration [mM] Pr” value ([1]; C, 3rd precipitation) was 4.70 mM and 4.31 mM and 4.98 mM and the “Precipitate concentration [mM] Nd” value ([1]; C, 3rd precipitation, mean) was 3.68 mM. For the same compound, the “precipitate concentration [mM] Pr” value ([1]; C, 3rd precipitation, mean) was 4.66 mM, the “Supernatant concentration [mM] Nd” value ([1]; C, 3rd precipitation, mean) was 0.85 mM and the “supernatant concentration [mM] Pr” value ([1]; C, 3rd precipitation, mean) was 0.65 mM. The “% distribution in fractions L5” value ([2]; fraction 1 (0% MeCN)) was 0.0%, the “% distribution in fractions Pr” value ([2]; fraction 1 (0% MeCN)) was 87% and the “measured content of fraction L5 peak area (280 nm)” value ([2]; fraction 1 (0% MeCN)) was 0 AU. For the same compound, the “measured content of fraction Pr” value ([2]; fraction 1 (0% MeCN)) was 18.95 mM, the “% distribution in fractions L5” value ([2]; fraction 2 (10% MeCN)) was 0.1% and the “% distribution in fractions Pr” value ([2]; fraction 2 (10% MeCN)) was 13%. For the same compound, the “measured content of fraction L5 peak area (280 nm)” value ([2]; fraction 2 (10% MeCN)) was 3 AU, the “measured content of fraction Pr” value ([2]; fraction 2 (10% MeCN)) was 2.82 mM and the “% distribution in fractions L5” value ([2]; fraction 3 (10% MeCN)) was 56.8%. The “measured content of fraction L5 peak area (280 nm)” value ([2]; fraction 3 (10% MeCN)) was 2258 AU, the “% distribution in fractions L5” value ([2]; fraction 4 (25% MeCN)) was 34.8% and the “measured content of fraction L5 peak area (280 nm)” value ([2]; fraction 4 (25% MeCN)) was 1382 AU. For the same compound, the “% distribution in fractions L5” value ([2]; fraction 5 (25% MeCN)) was 8.1%, the “measured content of fraction L5 peak area (280 nm)” value ([2]; fraction 5 (25% MeCN)) was 324 AU and the “% distribution in fractions L5” value ([2]; fraction 6 (50% MeCN)) was 0.1%. The “measured content of fraction L5 peak area (280 nm)” value ([2]; fraction 6 (50% MeCN)) was 5 AU, the “% distribution in fractions L5” value ([2]; fraction 7 (50% MeCN)) was 0.1% and the “measured content of fraction L5 peak area (280 nm)” value ([2]; fraction 7 (50% MeCN)) was 3 AU.
